Measured values published in patent US20040175789A1, “G protein coupled receptors and dna sequences thereof” (priority 2003, published 2004).
Blank lines part the entries; values can stand above or below the compound they belong to.

What was measured:
[1] = biological target: T1, orphan receptor Singlet_413 (Homo sapiens, UniProt Q8TDS5); assay: Ligand fishing: transient Ca2+ signal (Flipr384, Fluo-4) in CHO-K1-CRE cells stably transfected with Singlet_413; assay type: cell-based; conditions: not primed
T1 construct: expressed in transfected cells
Experimental: (§1) Twenty-four hours before the experiment, the cells are havested, counted and seeded in 384-well plates at 10000 cells per wells and put at 37° C./5% CO2. The day of the experiment, the injection plates containing the compounds are prepared as described in the following table:
(§2) The cells are loaded with 2 μM Fluo-4 in HBSS/Hepes buffer. After one hour incubation at 37° C./5% CO2, the cells are washed with HBSS/Hepes containing 2.5 mM probenecid (2 wash cycles+volume adjustment are performed). Plates that will be primed with ATP are adjusted to 20 μl final volume and plates that will directly receive the compounds are adjusted to 40 μl final volume. Four assay plates are primed with 20 μl ATP at 20 μM initial (10 μM final concentration) and are incubated at room temperature for 30 minutes. Compounds plates at 3 times the final concentration are then injected with the Flipr pipettor on both primed and not primed plates. The Flipr laser is setup on 0.6 watt, the exposure length at 0.4 sec. […] A 10 seconds baseline is recorded prior compounds injection. After the injection, the signal is recorded every second for one minute. Then, signal decay is measured for 20 additional seconds. Two statistics are exported: Fbasal and Fmax. For each well, a dF/F value is expressed with the following formula: (Fmax−Fbasal)/Fbasal is the basal fluorescence prior compound injection and Fmax is the peak value of the kinetic.

CHO-K1-ATCC cells = assay: Selectivity check: Ca2+ signal (Flipr) in wild type CHO-K1-ATCC cells; assay type: cell-based; conditions: for dF/F (Fmax−Fbasal)/Fbasal, CHO-K1-ATCC, np: not primed
Experimental: as §1, §2
(§3) These compounds are also tested against wild type cells and other transfected cells in order to check the selectivity.

Contig 88:1 = assay: Selectivity check: Ca2+ signal (Flipr) in CHO-CRE cells transfected with Contig 88:1; assay type: cell-based, human; conditions: not primed
Experimental: as §1, §2, §3

CHO-K1 (CHO-CRE) cells = assay: Selectivity check: Ca2+ signal (Flipr) in CHO-CRE CHO-K1 cells without receptor; assay type: cell-based; conditions: not primed
Experimental: as §1, §2, §3

T1 sequence (Q8TDS5 whole entry): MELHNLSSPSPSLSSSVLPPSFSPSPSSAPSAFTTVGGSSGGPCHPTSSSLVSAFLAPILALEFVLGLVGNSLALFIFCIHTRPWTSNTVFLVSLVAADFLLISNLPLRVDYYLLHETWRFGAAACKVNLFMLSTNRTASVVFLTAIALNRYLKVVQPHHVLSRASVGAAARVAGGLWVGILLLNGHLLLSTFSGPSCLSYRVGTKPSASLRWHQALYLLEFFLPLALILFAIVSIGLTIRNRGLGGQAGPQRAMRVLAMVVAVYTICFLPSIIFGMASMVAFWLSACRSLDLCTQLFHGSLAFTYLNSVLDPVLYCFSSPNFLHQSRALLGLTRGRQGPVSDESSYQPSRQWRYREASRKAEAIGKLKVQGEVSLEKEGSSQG

SMILES: CCCCC/C=C\C/C=C\C/C=C\C=C\[C@@H](O)CCCC(=O)O (racemic) [Cpd 2, (±)5-HETE]
dF/F (Fmax−Fbasal)/Fbasal, CHO-CRE Singlet_413, np [1]: 0.01 | dF/F (Fmax−Fbasal)/Fbasal, CHO-K1-ATCC, np (CHO-K1-ATCC cells): 0.02 | dF/F (Fmax−Fbasal)/Fbasal, CHO-CRE Contig 88:1, np (Contig 88:1): 0.01 | dF/F (Fmax−Fbasal)/Fbasal, CHO-CRE CHO-K1, np (CHO-K1 (CHO-CRE) cells): −0.05

SMILES: CCCCCCCC/C=C\C/C=C\C=C\C(O)CCCC(=O)O (racemic) [Cpd 4, (±)5-HETrE]
dF/F (Fmax−Fbasal)/Fbasal, CHO-CRE Singlet_413, np [1]: 0.03 | dF/F (Fmax−Fbasal)/Fbasal, CHO-K1-ATCC, np (CHO-K1-ATCC cells): 0.01 | dF/F (Fmax−Fbasal)/Fbasal, CHO-CRE Contig 88:1, np (Contig 88:1): 0.01 | dF/F (Fmax−Fbasal)/Fbasal, CHO-CRE CHO-K1, np (CHO-K1 (CHO-CRE) cells): −0.01

SMILES: CCCCC/C=C\C/C=C\C/C=C\C=C\[C@@H](O)CCCC(=O)O [Cpd 1, 5(S)-HETE]
dF/F (Fmax−Fbasal)/Fbasal, CHO-CRE Singlet_413, np [1]: 0.01 | dF/F (Fmax−Fbasal)/Fbasal, CHO-K1-ATCC, np (CHO-K1-ATCC cells): 0.02 | dF/F (Fmax−Fbasal)/Fbasal, CHO-CRE Contig 88:1, np (Contig 88:1): 0.00 | dF/F (Fmax−Fbasal)/Fbasal, CHO-CRE CHO-K1, np (CHO-K1 (CHO-CRE) cells): −0.02

SMILES: CCCCC/C=C\C=C\[C@@H](O)C/C=C\C/C=C\CCCC(=O)O [Cpd 3, 11(S)-HETE]
dF/F (Fmax−Fbasal)/Fbasal, CHO-CRE Singlet_413, np [1]: 0.00 | dF/F (Fmax−Fbasal)/Fbasal, CHO-K1-ATCC, np (CHO-K1-ATCC cells): −0.04 | dF/F (Fmax−Fbasal)/Fbasal, CHO-CRE Contig 88:1, np (Contig 88:1): 0.00 | dF/F (Fmax−Fbasal)/Fbasal, CHO-CRE CHO-K1, np (CHO-K1 (CHO-CRE) cells): −0.03

SMILES: CCCCC/C=C\C/C=C\C/C=C\C=C\[C@H](CCCC(=O)O)OO [Cpd 6, 5(S)-HPETE]
dF/F (Fmax−Fbasal)/Fbasal, CHO-CRE Singlet_413, np [1]: 0.01 | dF/F (Fmax−Fbasal)/Fbasal, CHO-K1-ATCC, np (CHO-K1-ATCC cells): 0.03 | dF/F (Fmax−Fbasal)/Fbasal, CHO-CRE Contig 88:1, np (Contig 88:1): 0.00 | dF/F (Fmax−Fbasal)/Fbasal, CHO-CRE CHO-K1, np (CHO-K1 (CHO-CRE) cells): −0.01

SMILES: CCCCC/C=C\C/C=C\C/C=C\C/C=C\CCCC(=O)O [Cpd 13, ARACHIDONIC ACID (20:4 n-6)]
dF/F (Fmax−Fbasal)/Fbasal, CHO-CRE Singlet_413, np [1]: 0.03 | dF/F (Fmax−Fbasal)/Fbasal, CHO-K1-ATCC, np (CHO-K1-ATCC cells): 0.01 | dF/F (Fmax−Fbasal)/Fbasal, CHO-CRE Contig 88:1, np (Contig 88:1): 0.02 | dF/F (Fmax−Fbasal)/Fbasal, CHO-CRE CHO-K1, np (CHO-K1 (CHO-CRE) cells): −0.05

SMILES: CCCCC/C=C\C/C=C\C/C=C\C/C=C\CCCC(=O)OC(CO)CO [Cpd 14, 2-ARACHIDONOYLGLYCEROL]
dF/F (Fmax−Fbasal)/Fbasal, CHO-CRE Singlet_413, np [1]: 0.02 | dF/F (Fmax−Fbasal)/Fbasal, CHO-K1-ATCC, np (CHO-K1-ATCC cells): 0.00 | dF/F (Fmax−Fbasal)/Fbasal, CHO-CRE Contig 88:1, np (Contig 88:1): 0.00 | dF/F (Fmax−Fbasal)/Fbasal, CHO-CRE CHO-K1, np (CHO-K1 (CHO-CRE) cells): −0.05

Now from value to compound, other results behind:

dF/F (Fmax−Fbasal)/Fbasal, CHO-CRE Singlet_413, np [1]: 0.03
SMILES: CC/C=C\C/C=C\C/C=C\C/C=C\C=C\C(O)CCCC(=O)O (racemic) [Cpd 5, (±)5-HEPE]
dF/F (Fmax−Fbasal)/Fbasal, CHO-K1-ATCC, np (CHO-K1-ATCC cells): 0.03 | dF/F (Fmax−Fbasal)/Fbasal, CHO-CRE Contig 88:1, np (Contig 88:1): 0.01 | dF/F (Fmax−Fbasal)/Fbasal, CHO-CRE CHO-K1, np (CHO-K1 (CHO-CRE) cells): −0.04

dF/F (Fmax−Fbasal)/Fbasal, CHO-CRE Singlet_413, np [1]: 0.01
SMILES: CCCCC/C=C\C[C@@H](O)/C=C/C=C/C=C/[C@@H](O)CCCC(=O)O (relative stereo) [Cpd 8, 5(S), 12(R)-DIHETE all trans]
dF/F (Fmax−Fbasal)/Fbasal, CHO-K1-ATCC, np (CHO-K1-ATCC cells): 0.02 | dF/F (Fmax−Fbasal)/Fbasal, CHO-CRE Contig 88:1, np (Contig 88:1): 0.01 | dF/F (Fmax−Fbasal)/Fbasal, CHO-CRE CHO-K1, np (CHO-K1 (CHO-CRE) cells): −0.04

dF/F (Fmax−Fbasal)/Fbasal, CHO-CRE Singlet_413, np [1]: 0.02
SMILES: CCCCC/C=C\C[C@@H]1O[C@H]1C(O)/C=C\C/C=C\CCCC(=O)O (stereo partly shown) [Cpd 7, HEPOXILIN B3]
dF/F (Fmax−Fbasal)/Fbasal, CHO-K1-ATCC, np (CHO-K1-ATCC cells): 0.01 | dF/F (Fmax−Fbasal)/Fbasal, CHO-CRE Contig 88:1, np (Contig 88:1): 0.00 | dF/F (Fmax−Fbasal)/Fbasal, CHO-CRE CHO-K1, np (CHO-K1 (CHO-CRE) cells): −0.01

dF/F (Fmax−Fbasal)/Fbasal, CHO-CRE Singlet_413, np [1]: 0.02
SMILES: CCCCC/C=C\CC1OC1C/C=C\C/C=C\CCCC(=O)O (stereo not shown) [Cpd 9, 11,12-EPOXYEICOSATRIENOIC ACID]
dF/F (Fmax−Fbasal)/Fbasal, CHO-K1-ATCC, np (CHO-K1-ATCC cells): 0.00 | dF/F (Fmax−Fbasal)/Fbasal, CHO-CRE Contig 88:1, np (Contig 88:1): 0.02 | dF/F (Fmax−Fbasal)/Fbasal, CHO-CRE CHO-K1, np (CHO-K1 (CHO-CRE) cells): −0.02

dF/F (Fmax−Fbasal)/Fbasal, CHO-CRE Singlet_413, np [1]: 0.01
SMILES: CCCCC/C=C\C/C=C\C/C=C\C=C\C(=O)CCCC(=O)O [Cpd 10, 5-KETOEICOSATETRAENOIC ACID]
activity (Ca2+ signal) on the non-transfected cells (CHO-K1-ATCC cells; non-transfected cells): not active | dF/F (Fmax−Fbasal)/Fbasal, CHO-K1-ATCC, np (CHO-K1-ATCC cells): 0.04 | dF/F (Fmax−Fbasal)/Fbasal, CHO-CRE Contig 88:1, np (Contig 88:1): 0.00 | dF/F (Fmax−Fbasal)/Fbasal, CHO-CRE CHO-K1, np (CHO-K1 (CHO-CRE) cells): −0.05

dF/F (Fmax−Fbasal)/Fbasal, CHO-CRE Singlet_413, np [1]: −0.01
SMILES: CCCCC/C=C\C/C=C\C/C=C\C/C=C\CCCC(=O)OC(CO)COC(=O)CCCCCCCCCCCCCCCCC (stereo not shown) [Cpd 11, 1-STEAROYL-2-ARACHIDONOYL-GLYCEROL]
dF/F (Fmax−Fbasal)/Fbasal, CHO-K1-ATCC, np (CHO-K1-ATCC cells): 0.01 | dF/F (Fmax−Fbasal)/Fbasal, CHO-CRE Contig 88:1, np (Contig 88:1): −0.01 | dF/F (Fmax−Fbasal)/Fbasal, CHO-CRE CHO-K1, np (CHO-K1 (CHO-CRE) cells): −0.05

dF/F (Fmax−Fbasal)/Fbasal, CHO-CRE Singlet_413, np [1]: 0.05
SMILES: CC/C=C\C/C=C\C/C=C\C/C=C\C/C=C\CCCC(=O)O [Cpd 12, EICOSAPENTAENOIC ACID (20:5 n-3)]
dF/F (Fmax−Fbasal)/Fbasal, CHO-K1-ATCC, np (CHO-K1-ATCC cells): 0.02 | dF/F (Fmax−Fbasal)/Fbasal, CHO-CRE Contig 88:1, np (Contig 88:1): 0.03 | dF/F (Fmax−Fbasal)/Fbasal, CHO-CRE CHO-K1, np (CHO-K1 (CHO-CRE) cells): −0.04

dF/F (Fmax−Fbasal)/Fbasal, CHO-CRE Singlet_413, np [1]: 0.11
SMILES: OCCN(CCO)c1nc(N2CCCCC2)c2nc(N(CCO)CCO)nc(N3CCCCC3)c2n1 [Cpd 15, Dipyridamole]
dF/F (Fmax−Fbasal)/Fbasal, CHO-K1-ATCC, np (CHO-K1-ATCC cells): 0.38 | dF/F (Fmax−Fbasal)/Fbasal, CHO-CRE Contig 88:1, np (Contig 88:1): 0.39 | dF/F (Fmax−Fbasal)/Fbasal, CHO-CRE CHO-K1, np (CHO-K1 (CHO-CRE) cells): −0.04
